Assay results from patent publication US20100113613A1, “CYCLOHEXANE POLYALCOHOL FORMULATION FOR TREATMENT OF DISORDERS OF PROTEIN AGGREGATION” (WARATAH PHARMACEUTICALS, priority 2006, published 2010).
Blank lines part the entries; values can stand above or below the compound they belong to.

How the values were obtained:
clinical = conditions: human, in vivo
Excerpt: Dose levels were escalated between cohorts, such that the first cohort received the lowest dose level, the middle cohorts received intermediate dose levels, and the final cohort received the highest proposed dose level. Dose escalation was dependent on a review of safety data from the previously dosed cohort. […] Dosing started with the lowest dose and escalated to the highest dose. […] Subjects received their single dose of study drug on the study day 1 (Day 1). Throughout the day on Day 1, subjects were monitored for safety and PK samples were drawn. On Day 2, subjects were monitored for safety and PK samples were drawn.

TgCRND8 mice [1] = test: TgCRND8 mice therapeutic dosing (5-6 months): Morris Water Maze; type: in vivo
Aβ42 = biological target: T1, Aβ42 (Homo sapiens, UniProt P05067); test: TgCRND8 mice 2 month ad libitum treatment from 5 months: brain and plasma Aβ42 ELISA; type: in vivo; conditions: 2 month treatment ad libitum 10 mg/ml from 5 months of age
T1 construct: Levels of Aβ42 in brain homogenates were assessed by ELISA; from tissue; host or cells: brain homogenate (and plasma) of TgCRND8 transgenic mice

[2] = Orally administered tritiated-inositol uptake in plasma and brain (FIG. 16); type: in vivo
Procedure: FIG. 16. Bioavailability of scyllo- (solid line) and myo-inositol (dashed line) in plasma and brain, determined using orally administered tritiated-inositol uptake studies. […] Brain levels also rose rapidly and were maximal at 8 h and 32 h, respectively.

TgCRND8 mice [3] = test: Morris Water Maze, TgCRND8 mice dosed 3 to 4 months, 3.3-30 mg/kg/day (Example 3); type: in vivo
Procedure: 8 mice were treated with scyllo-cyclohexanehexyl by oral gavage from 3 to 4 months. […] Animals were assessed at 4 months of age. Behavioural tests: Morris Water Maze testing was performed as previously described (Janus C, et al., 2000, Nature 408:979-982). After non-spatial pre-training, mice underwent place discrimination training for 5 days with 4-trials per day. Data were subjected to a repeated measures analysis of variance (ANOVA) with treatment (untreated, scyllo-cyclohexanehexyl) as the between subject factor. Cerebral plaque burden. Brains were removed and one hemisphere was fixed in 4% paraformaldehyde and embedded in paraffin wax in the mid sagittal plane. To generate sets of systematic uniform random sections, 5 μm serial sections were collected across the entire hemisphere. Sets of sections at 50 μm intervals were used for analyses (10-14 sections/set). Plaques were identified after antigen retrieval with formic acid, and incubation with primary anti-Aβ antibody (Dako M-0872), followed by secondary antibody (Dako StreptABCcomplex/horseradish kit). […] Aβ plaque burden was assessed with Leco IA-3001 image analysis software interfaced with Leica microscope and Hitachi KP-M1U CCD video camera. […] Vascular Aβ burden was defined as Aβ plaques originating from or surrounding blood vessels and was analysed similarly. […] The total swim path length to find the hidden platform is evaluated. […]

[4] = tested on: rats infused intracerebroventricularly; test: Cognitive dysfunction in rats infused intracerebroventricularly with Aβ oligomers; type: in vivo, rat; conditions: rats infused icv with oligomers
Procedure: More complex systems provide support for 5 μM (0.9 μg/mL) as an effective local concentration of the scyllo-cyclohexanehexyl. […] The effectiveness of this concentration was confirmed in acute cognitive dysfunction study in rats. In the clinic, effective local concentrations of a scyllo-cyclohexanehexyl will need to be achieved following oral dosing. Three studies have examined the effective dose range of a scyllo-cyclohexanehexyl following oral dosing. […] In rats infused intracerebroventricularly (icy) with All oligomers, approximately 30 mg/kg/day (the lowest dose administered orally) provided effective alleviation of cognitive dysfunction. Therefore, considering 2 species, different animal ages and different endpoints, a dose level ranging between 3-30 mg/kg/day has consistently shown efficacy.

long term potentiation = test: Long term potentiation experiments with amyloid oligomer; conditions: amyloid oligomer concentration 1-2 nM
Procedure: More complex systems provide support for 5 μM (0.9 μg/mL) as an effective local concentration of the scyllo-cyclohexanehexyl. […] The effectiveness of this concentration was confirmed in acute cognitive dysfunction study in rats.

T1 sequence (P05067 672-713): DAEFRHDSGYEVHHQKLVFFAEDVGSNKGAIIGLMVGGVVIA

- mean elimination half-life (t1/2), range over doses (clinical; po): 13 24
- CL/F (clinical; po, 500 mg): 13.67 ± 5.49 L/h
- CL/F (clinical; po, 1000 mg): 8.51 ± 2.78 L/h
- CL/F (clinical; po, 2000 mg): 9.59 ± 1.80 L/h
- CL/F (clinical; po, 3500 mg): 7.71 ± 1.59 L/h
- CL/F (clinical; po, 5000 mg): 10.04 ± 1.49 L/h
- Vd (clinical; male, 7000 mg): 214 L
- half-life (clinical; male, 7000 mg): 18.4 h
- share of the AUC accounted for in the first 12 hrs (clinical; male, po): 80-85%
- AUC(0-inf) (clinical; male, po, 500 mg): 42.5 ± 22.1 µg·h/mL
- AUC(0-t) (clinical; male, po, 500 mg): 29.9 ± 7.11 µg·h/mL
- Cmax (clinical; male, po, 500 mg): 5.83 ± 1.83 µg/mL
- MRT (clinical; male, po, 500 mg): 19.1 ± 21.8 h
- Tmax (clinical; male, po, 500 mg): 4 ± 1.55 h
- half-life (clinical; male, po, 500 mg): 13.3 ± 16.7 h
- AUC(0-inf) (clinical; male, po, 1000 mg): 130 ± 44.4 µg·h/mL
- Cmax (clinical; male, po, 1000 mg): 17 ± 5.29 µg/mL
- MRT (clinical; male, po, 1000 mg): 19.7 ± 3.17 h
- Tmax (clinical; male, po, 1000 mg): 3.25 ± 1.47 h
- half-life (clinical; male, po, 1000 mg): 22.5 ± 5.75 h
- AUC(0-inf) (clinical; male, po, 2000 mg): 215 ± 41.9 µg·h/mL
- AUC(0-t) (clinical; male, po, 2000 mg): 194 ± 36.1 µg·h/mL
- Cmax (clinical; male, po, 2000 mg): 33.1 ± 7.57 µg/mL
- MRT (clinical; male, po, 2000 mg): 16.3 ± 3.99 h
- Tmax (clinical; male, po, 2000 mg): 2.75 ± 0.61 h
- half-life (clinical; male, po, 2000 mg): 23.9 ± 7.24 h
- AUC(0-inf) (clinical; male, po, 3500 mg): 467 ± 77.7 µg·h/mL
- AUC(0-t) (clinical; male, po, 3500 mg): 441 ± 71.4 µg·h/mL
- Cmax (clinical; male, po, 3500 mg): 74.6 ± 9.24 µg/mL
- MRT (clinical; male, po, 3500 mg): 11 ± 1.43 h
- Tmax (clinical; male, po, 3500 mg): 2.75 ± 0.61 h
- half-life (clinical; male, po, 3500 mg): 20.3 ± 3.09 h
- AUC(0-inf) (clinical; male, po, 5000 mg): 507 ± 72 µg·h/mL
- AUC(0-t) (clinical; male, po, 5000 mg): 491 ± 73.2 µg·h/mL
- Cmax (clinical; male, po, 5000 mg): 110 ± 26.9 µg/mL
- MRT (clinical; male, po, 5000 mg): 8.23 ± 2 h
- Tmax (clinical; male, po, 5000 mg): 2.42 ± 0.66 h
- half-life (clinical; male, po, 5000 mg): 16.9 ± 7.1 h
- AUC(0-inf) (clinical; male, po, 7000 mg): 885 ± 151 µg·h/mL
- AUC(0-t) (clinical; male, po, 7000 mg): 860 ± 148 µg·h/mL
- Cmax (clinical; male, po, 7000 mg): 155 ± 20.4 µg/mL
- Tmax (clinical; male, po, 7000 mg): 2.42 ± 0.67 h
- half-life (clinical; male, po, 7000 mg): 18.4 ± 4.64 h
- Plasma Aβ levels Aβ42 (Aβ42): 3035 ± 236 pg/mL
- time of maximal brain levels [2]: 32 h
- time of peak plasma levels post administration [2]: 12 h
Compound: OC1C(O)C(O)C(O)C(O)C1O (stereo not shown) [AZD-103, scyllo-inositol]
- swim path lengths vs non-transgenic littermates (TgCRND8 mice [1]; TgCRND8 mice treated 28 days from 5 months, p=0.11): indistinguishable from non-transgenic littermates
- behavioural performance (swim path length in the Morris Water Maze) vs untreated controls (TgCRND8 mice [1]; TgCRND8 mice, 28 days from 5 months, drinking water 10 mg/ml (approx. 900 mg/kg over 24 hours), p=0.01): significantly better behavioural performance

Compound: scyllo-inositol [AZD-103]
- maximally efficacious dose level (TgCRND8 mice [3]; Morris Water Maze, TgCRND8 mice aged 4 months, oral twice daily): 3.3 mg/kg/day
- swim path length (Morris Water Maze) after 5 days of assessment vs placebo (TgCRND8 mice [3]; TgCRND8 mice treated 3 to 4 months, all dose levels, p=0.003, 0.008, 0.002 for 3.3, 10 and 30 mg/kg/day): significantly shorter
- dose providing effective alleviation of cognitive dysfunction (lowest dose administered orally) [4]: approximately 30 mg/kg/day
- lowest maximally-effective dose level (long term potentiation): 5 µM
